Source: patent US8097774B2, “Cytochrome P450 genes conferring herbicide resistance” (Syngenta Participations AG, priority 2007, dated 2012)
Where two headings read alike, the source gives them in different places.

Legend:
[1] = test system: Negative T0 transformants (negative by Taqman for presence of transgenes); experiment: Mesotrione spray on soybean T0 plants, chlorosis rating; format: in vivo, Soybean (Glycine max); settings: 52.5 g/ha mesotrione, 22 days after the spray
Experimental: (§1) T0 plants were taken from tissue culture to the greenhouse where they are transplanted into saturated soil (Redi-Earth® Plug and Seedling Mix, Sun Gro Horticulture, Bellevue, Wash.) mixed with 1% granular Marathon® (Olympic Horticultural Products, Co., Mainland, Pa.) at 5-10 g/gal Redi-Earth® Mix in 2″ square pots. The plants were covered with humidity domes and placed in a Conviron chamber (Pembina, N. Dak.) with the following environmental conditions: 24° C. day; 18° C. night; 23 hr photoperiod; 80% relative humidity.
(§2) After plants became established in the soil and new growth appeared (˜1-2 weeks), plants were sampled and tested for the presence of desired transgene by Taqman® analysis using probes for P450 (CYP72A1), or promoters (prCMP and prUBq3). All positive plants and several negative plants were transplanted into 4″ square pots containing MetroMix® 380 soil (Sun Gro Horticulture, Bellevue, Wash.). Sierra 17-6-12 slow release fertilizer was incorporated into the soil at the recommended rate. The negative plants serve as controls for the spray experiment. The plants were then relocated into a standard greenhouse to acclimatize (˜1 week). The environmental conditions were: 27° C. day; 21° C. night; 12 hr photoperiod (with ambient light); ambient humidity. After acclimatizing (˜1 week), the plants were ready to be sprayed with the desired herbicides.
The plants from Example 6 were sprayed with mesotrione to determine if they were tolerant to this herbicide. Callisto® (active ingredient mesotrione, Syngenta Crop Protection, Inc., Greensboro, N.C.) was mixed in water and X-77 surfactant (0.25% v/v final concentration). Plants were placed in a DeVries spray chamber (DeVries Manufacturing, Hollandale, Minn.), and the distance from the nozzle to the top of the plants was adjusted to approximately 12 inches. The system was set up so that the boom moved at 2 mph, and delivered 25 gallon fluid per acre. The spray rate was calibrated to spray 52.5 g/ha mesotrione over the top of the plants. Negative T0 transformants (i.e., negative by Taqman® for presence of transgenes), T0 transformants with vector 17107, and one transformant with vector 17108 (event 17108-A), were sprayed in this manner. After spraying, plants were placed in the greenhouse, under the same conditions as described in Example 3 above, and evaluated frequently for symptoms. […] However, over time, leaves greened up on all plants. New growth developed as partially bleached, or chlorotic, and the leaves that initially were bleached also greened up. […] At 22 days after the spray, the plants were rated for symptoms on the leaves that were initially bleached. […]

[2] = test system: T0 transformants with vector 17107 (corn CYP72A1 cytochrome P450 gene); experiment: as above; format: in vivo, Soybean (Glycine max); settings: 17107 positive, 52.5 g/ha mesotrione, 22 days after the spray
Source text: A binary vector (17107) for dicot (soybean) transformation was constructed, with the Arabidopsis UBQ3 promoter driving the corn CYP72A1 cytochrome P450 gene, followed by NOS terminator (FIG. 3). The gene was codon optimized for soybean expression based upon the predicted amino acid sequence of the maize gene coding region. The amino acid sequence of the protein encoded by the CYP72A1 gene is provided in SEQ ID NO:3, and the nucleotide sequence of the optimized CYP72A1 gene in this binary transformation vector is provided in SEQ ID NO:4. The transformation vector also contains two PAT gene cassettes (one with the 35S promoter and one with the CMP promoter, and both PAT genes are followed by the nos terminator) for glufosinate based selection during the transformation process.
as §1, §2
The plants from Example 6 were sprayed with mesotrione to determine if they were tolerant to this herbicide. Callisto® (active ingredient mesotrione, Syngenta Crop Protection, Inc., Greensboro, N.C.) was mixed in water and X-77 surfactant (0.25% v/v final concentration). Plants were placed in a DeVries spray chamber (DeVries Manufacturing, Hollandale, Minn.), and the distance from the nozzle to the top of the plants was adjusted to approximately 12 inches. The system was set up so that the boom moved at 2 mph, and delivered 25 gallon fluid per acre. The spray rate was calibrated to spray 52.5 g/ha mesotrione over the top of the plants. Negative T0 transformants (i.e., negative by Taqman® for presence of transgenes), T0 transformants with vector 17107, and one transformant with vector 17108 (event 17108-A), were sprayed in this manner. After spraying, plants were placed in the greenhouse, under the same conditions as described in Example 3 above, and evaluated frequently for symptoms. […] However, over time, leaves greened up on all plants. New growth developed as partially bleached, or chlorotic, and the leaves that initially were bleached also greened up. […] At 22 days after the spray, the plants were rated for symptoms on the leaves that were initially bleached. Visible chlorosis was only seen on the leaves immediately above the leaves that were exposed during the spray (i.e., the leaves that had necrotic spots), and in some events, on leaves in sideshoots. The partial chlorosis was evident as light green patches, and often as light green (almost yellow) edges on the leaves.

[3] = test system: transformant with vector 17108 (event 17108-A, nsf P450 gene); experiment: as above; format: in vivo, Soybean (Glycine max); settings: 52.5 g/ha mesotrione
Source text: A similar binary vector (17108) was constructed with the corn cytochrome P450 gene ‘nsf’ instead of the CYP72A1 gene (FIG. 4). The nsf gene in this vector was codon optimized for soybean expression (SEQ ID NO:2) based upon the predicted amino acid sequence of the maize gene coding region (SEQ ID NO:1).
as §1, §2
The plants from Example 6 were sprayed with mesotrione to determine if they were tolerant to this herbicide. Callisto® (active ingredient mesotrione, Syngenta Crop Protection, Inc., Greensboro, N.C.) was mixed in water and X-77 surfactant (0.25% v/v final concentration). Plants were placed in a DeVries spray chamber (DeVries Manufacturing, Hollandale, Minn.), and the distance from the nozzle to the top of the plants was adjusted to approximately 12 inches. The system was set up so that the boom moved at 2 mph, and delivered 25 gallon fluid per acre. The spray rate was calibrated to spray 52.5 g/ha mesotrione over the top of the plants. Negative T0 transformants (i.e., negative by Taqman® for presence of transgenes), T0 transformants with vector 17107, and one transformant with vector 17108 (event 17108-A), were sprayed in this manner. After spraying, plants were placed in the greenhouse, under the same conditions as described in Example 3 above, and evaluated frequently for symptoms. […] However, over time, leaves greened up on all plants. […]

[4] = test system: All plants that were sprayed (negative T0 transformants, vector 17107, event 17108-A); experiment: Mesotrione spray on soybean T0 plants, early symptoms on all sprayed plants; format: in vivo, Soybean (Glycine max); settings: 52.5 g/ha mesotrione over the top
Experimental: as §1
as §2, with “The negative plants serve as controls for the spray experiment. The plants were then relocated into a standard greenhouse to acclimatize (˜1 week). The environmental conditions were: 27° C. day; 21° C. night; 12 hr photoperiod (with ambient light); ambient humidity.” left out
The plants from Example 6 were sprayed with mesotrione to determine if they were tolerant to this herbicide. […] After spraying, plants were placed in the greenhouse, under the same conditions as described in Example 3 above, and evaluated frequently for symptoms. […]

[5] = test system: untransformed explants (wild-type tobacco); experiment: Tobacco explants on MS agar containing mesotrione; format: in vivo; settings: 0.02 ppm mesotrione in MS agar (+3% sucrose); no recovery following prolonged exposure
Source text: (§3) To determine tolerance of P450 transgenic explants (i.e. a leaf plus short segment of stem containing the auxiliary bud), these are placed into MS agar (+3% sucrose) containing various concentrations of mesotrione, from 0.02 to 2 ppm. […] In these particular experiments, only the shoot that develops from the bud is bleached, the leaf on the explanted tissue remains green.

[6] = test system: P450 transgenic explants (transgene PCR+ve transformed plants); experiment: Tobacco explants on MS agar containing mesotrione; format: in vivo
Source text: Plant transformation vectors with the appropriate P450 gene expression cassette are used to transform Agrobacterium tumefaciens LBA4404. Tobacco tissue is subjected to Agrobacterium-mediated transformation using methods well described in the art. Transformed shoots are regenerated from callus resistant to the selection agent (e.g., glufosinate, butafenacil, kanamycin). Shoots are rooted on MS agar containing the selection agent.
as §3
They root normally and are phenotypically indistinguishable from untransformed plants. A sub-set of the transformants is tolerant to concentrations of >0.1 ppm yielding plants looking normal and rooting well in the presence of herbicide. Some of the transformed plants can be initially bleached when subjected to the herbicide at the said higher concentrations, but on prolonged exposure they progressively “green up” and “recover”. […]

corn plants = experiment: Mesotrione levels in treated corn plants; format: in vivo; settings: over time; P450 based degradation mechanism
[7] = test system: Transgenic progeny plants (T1 or later generations) containing the nsf transgene (vector 17108); experiment: T1 seed from 17108 events, spray with other HPPD herbicides; settings: sprayed at 40-80 g/ha rates or higher; evaluated for bleaching and chlorosis
Experimental: T0 transformants containing the nsf transgene (vector 17108) are allowed to set T1 seed, and the seed is harvested. This seed is planted, and the progeny analyzed to identify seedlots that are derived from germline transformed plants. Transgenic progeny plants (T1 or later generations), are analyzed to confirm mesotrione tolerance. […] Plants are evaluated for bleaching, and chlorosis, as described in Example 7.

rice CYP81A6 enzyme = settings: Pan et al. (2007); cited from earlier work
corn CYP72A1 enzyme = settings: U.S. Pat. No. 6,380,465, cited from earlier work
[8] = test system: CYP76B1 gene in tobacco (Nicotiana tabacum) and Arabidopsis; settings: cited from earlier work
[9] = event 17108-A, 17108 positive, 22 days after the spray
[10] = heterologous expression of CYP76B1, Didierjean et al. (2002)

CS(=O)(=O)c1ccc(C(=O)C2C(=O)CCCC2=O)c([N+](=O)[O-])c1 [mesotrione]
Number of leaves with <50% chlorisis ([1]; event 6D032-A #4, Negative): 1 | Number of leaves with ≧50% chlorosis ([1]; event 6D032-A #4, Negative): 1 | Number of leaves with <50% chlorisis ([1]; event 6D032-A #14, Negative): 0 | Number of leaves with ≧50% chlorosis ([1]; event 6D032-A #14, Negative): 2 | Number of leaves with <50% chlorisis ([2]; event 17107-A): 0 | Number of leaves with ≧50% chlorosis ([2]; event 17107-A): 2 | Number of leaves with <50% chlorisis ([2]; event 17107-B): 2 | Number of leaves with ≧50% chlorosis ([2]; event 17107-B): 2 | Number of leaves with <50% chlorisis ([2]; event 17107-C): 1 | Number of leaves with ≧50% chlorosis ([2]; event 17107-C): 1 | Number of leaves with <50% chlorisis ([2]; event 17107-D): 2 | Number of leaves with ≧50% chlorosis ([2]; event 17107-D): 3 | Number of leaves with <50% chlorisis ([2]; event 17107-E): 1 | Number of leaves with ≧50% chlorosis ([2]; event 17107-E): 2 | Number of leaves with <50% chlorisis ([2]; event 17107-F): 2 | Number of leaves with ≧50% chlorosis ([2]; event 17107-F): 1 | Number of leaves with <50% chlorisis ([2]; event 17107-G): 2 | Number of leaves with ≧50% chlorosis ([2]; event 17107-G): 1 | Number of leaves with <50% chlorisis ([2]; event 17107-H): 4 | Number of leaves with ≧50% chlorosis ([2]; event 17107-H): 2 | Number of leaves with <50% chlorisis ([2]; event 17107-I): 1 | Number of leaves with ≧50% chlorosis ([2]; event 17107-I): 1 | recovery from the mesotrione injury ([3]; event 17108-A only): fully recover | Number of leaves with <50% chlorisis [3, 9]: 0 | Number of leaves with ≧50% chlorosis [3, 9]: 0 | greening of bleached leaves compared with events with vector 17107 ([3]; event 17108-A, 1 week after spray): turned green faster | symptoms on leaves exposed at the time of herbicide application [4]: developed necrotic symptoms on small portions of the leaves | bleaching of new growth that emerged from the plants ([4]; leaves greened up over time): completely bleached | bleaching of explants [5]: fully bleached | bleaching at the level which causes symptoms on wild-type tobacco ([6]; a number of the transgene PCR+ve transformed plants): no indication of bleaching | concentration tolerated, plants looking normal and rooting well ([6]; a sub-set of the transformants, mesotrione in MS agar): > 0.1 ppm | mesotrione levels in treated corn plants (corn plants): decrease over time

CS(=O)(=O)c1ccc(C(=O)C2C(=O)CCCC2=O)c(Cl)c1 [Sulcotrione]
tolerance when sprayed [7]: display tolerance

CC(C)N1C(=O)c2ccccc2NS1(=O)=O [bentazon]
ability of the enzyme to degrade the herbicide (rice CYP81A6 enzyme): able to degrade | ability of the enzyme to degrade the herbicide (corn CYP72A1 enzyme): degrade

COc1cc(Cl)nc(NC(=O)NS(=O)(=O)c2ccccc2C(=O)O)n1 [chlorimuron]
ability of the enzyme to degrade the herbicide (corn CYP72A1 enzyme): degrade

CCOC(=O)CC(SP(=S)(OC)OC)C(=O)OCC (stereo not shown) [malathion]
ability of these plants to degrade the insecticide (corn CYP72A1 enzyme; plants): able to degrade

Cc1ccc(C(=O)COc2c(C(=O)c3ccc(Cl)c(C)c3Cl)c(C)nn2C)cc1 [Benzofenap]
tolerance when sprayed [7]: display tolerance

Cc1c(C(=O)c2cnn(C)c2O)ccc(S(C)(=O)=O)c1C1=NOCC1 [Topramezone]
tolerance when sprayed [7]: display tolerance

Cc1ccc(NC(=O)N(C)C)cc1Cl [chlortoluron]
increase in tolerance [8, 10]: 10 fold | ability of the enzyme to degrade the herbicide (corn CYP72A1 enzyme): degrade

CON(C)C(=O)Nc1ccc(Cl)c(Cl)c1 [linuron]
level of tolerance [8, 10]: 20 fold

Cc1nn(C)c(O)c1C(=O)c1ccc(C(F)(F)F)cc1S(C)(=O)=O [Pyrasulfatole]
tolerance when sprayed [7]: display tolerance

CS(=O)(=O)c1cc(Cl)ccc1C(=O)c1cnoc1C1CC1 [Isoxachlortole]
tolerance when sprayed [7]: display tolerance

CS(=O)(=O)c1ccc(C(=O)C2=C(Sc3ccccc3)C3CCC(C3)C2=O)c(Cl)c1 (stereo not shown) [Benzobicyclon]
tolerance when sprayed [7]: display tolerance

CC(C)c1ccc(NC(=O)N(C)C)cc1 [isoproturon]
increase in tolerance ([8]; in vivo): 10 fold
